The text below walks through data of paper PMC7806714, “Statins for the prevention of proliferative vitreoretinopathy: cellular responses in cultured cells and clinical statin concentrations in the vitreous” (Scientific Reports, 2021).

Series [1] is described as follows: Calculated average steady-state plasma (Eq. 1) and expected vitreal concentrations (Eq. 3). The arrangement: species or system human. To be noted: for Calc. Cv: expected vitreal, Eq. 3; for Css,av: plasma, Eq. 1. The procedure:
The concentrations of statins and their metabolites in the vitreous were analysed (see above) and expressed as ng/mL concentrations. These concentrations were compared to published statin concentrations in plasma. […] Maximum concentrations in plasma and the area under the concentration vs time curve values were collected. The expected average statin concentrations in plasma during multiple dose treatment were calculated for the doses that the patients received in our study (Eq. 1):1 Css,av=AUCsingledose/τ where τ is the time interval between doses. The drug concentrations in plasma (C, Cmax, Css, av) include both unbound (Cu) and protein-bound drug. The values for protein binding were obtained from the summary of drug product characteristics for each statin. The free fraction of statin in plasma was calculated based on Eq. (2):2 fu=CuC
The expected drug concentrations in the patients’ vitreous samples were calculated according to Eq. (3)3 Cv=fu×Css,av
Equation (3) assumes that the vitreal drug concentrations equilibrate with the unbound drug concentrations in plasma, because only free drug is expected to cross the blood-ocular barriers.

The conditions of series [2]: free fraction of drug in plasma; ref summary of product characteristics document; cited from earlier work.

Regarding `CC(C)c1nc(N(C)S(C)(=O)=O)nc(-c2ccc(F)cc2)c1/C=C/[C@@H](O)C[C@@H](O)CC(=O)O` [Rosuvastatin], the “Calc. Cv” value in series [1] (10 mg/d, China study [30]) is given as 0.513 ng/mL; in series [1] (10 mg/d, Germany study [31]) it was 0.242 ng/mL; in series [1] (20 mg/d, Chinese study [30]) it was 0.883 ng/mL; in series [1] (20 mg/d, UK study [32]) it was 0.314 ng/mL. Moreover, the “Css,av” value in series [1] (10 mg/d, China study [30]) was 4.27 ng/mL; in series [1] (10 mg/d, Germany study [31]) it was 2.02 ng/mL; in series [1] (20 mg/d, Chinese study [30]) it was 7.36 ng/mL; in series [1] (20 mg/d, UK study [32]) it was 2.62 ng/mL. Besides, the fu in series [2] is on record as 0.12.
